# How the values were obtained:
# [1] = target: T1, purified human PGAM1 proteins (recombinant PGAM1) (Homo sapiens, UniProt P18669); experiment: In vitro PGAM1 enzyme assay (coupled enolase/PKM1/LDH, NADH oxidation); type: biochemical; conditions: for screening outcome (PGAM1 primary screen, enolase secondary screen): library screen with coupled PGAM1 and enolase assays; for relative PGAM1 inhibitory potency in vitro: purified recombinant PGAM1, comparison among alizarin, alizarin Red S and PGMI-004A
# T1 construct: (His)6; made in house; host or cells: E. coli BL21(DE3)pLysS (pET53 vector)
# T1 sequence (P18669 whole entry): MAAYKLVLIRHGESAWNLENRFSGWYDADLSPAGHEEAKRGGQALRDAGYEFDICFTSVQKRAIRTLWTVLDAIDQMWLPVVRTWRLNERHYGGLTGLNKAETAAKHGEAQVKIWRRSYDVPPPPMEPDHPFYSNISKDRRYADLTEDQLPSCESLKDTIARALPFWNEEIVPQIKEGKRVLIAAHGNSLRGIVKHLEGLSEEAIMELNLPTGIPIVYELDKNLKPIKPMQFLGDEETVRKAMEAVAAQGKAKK
# Protocol: An in vitro PGAM1 assay was performed as primary screening. PGAM1 enzyme mix was prepared containing 100 mM Tris-HCl, 100 mM KCl, 5 mM MgCl2, 1 mM ADP, 0.2 mM NADH, 5 mg/ml recombinant PGAM1, 0.5 units/ml enolase, 0.5 units/ml recombinant pyruvate kinase M1, and 0.1 units/ml recombinant LDH. 3-PG was added last at the final concentration of 2 mM to initiate the reaction. […] An in vitro enolase assay as secondary screening was also performed. Enolase enzyme mix was prepared containing 100 mM Tris-HCl, 100 mM KCl, 5 mM MgCl2, 1 mM ADP, 0.2 mM NADH, 0.5 units/ml enolase, 0.5 units/ml recombinant pyruvate kinase M1, and 0.1 units/ml recombinant LDH. 2-PG was added last at the final concentration of 2 mM to initiate the reaction. […] Assay was carried out in Tris-HCl buffer (10 mM Tris, pH 7.4, 100 mM NaCl) containing 5% DMSO.
# PGAM1 activity was measured by multiple enzymes coupled assay. PGAM1 enzyme mix containing 100 mM Tris-HCl, 100 mM KCl, 5 mM MgCl2, 1 mM ADP, 0.2 mM NADH, 5 mg/ml recombinant PGAM1, 0.5 units/ml enolase, 0.5 units/ml recombinant pyruvate kinase M1, and 0.1 units/ml recombinant LDH was prepared. 3-PG was added last at a final concentration of 2 mM to initiate the reaction.
# [2] = target: T2, G6PD (H1299 cell lysates or rG6PD) (Homo sapiens, UniProt P11413); experiment: G6PD enzyme assay; type: biochemical; conditions: increasing concentrations of 3-PG
# T2 construct: endogenous in cells; host or cells: H1299 cell lysates; also recombinant rG6PD of unstated origin
# T2 sequence (P11413 whole entry): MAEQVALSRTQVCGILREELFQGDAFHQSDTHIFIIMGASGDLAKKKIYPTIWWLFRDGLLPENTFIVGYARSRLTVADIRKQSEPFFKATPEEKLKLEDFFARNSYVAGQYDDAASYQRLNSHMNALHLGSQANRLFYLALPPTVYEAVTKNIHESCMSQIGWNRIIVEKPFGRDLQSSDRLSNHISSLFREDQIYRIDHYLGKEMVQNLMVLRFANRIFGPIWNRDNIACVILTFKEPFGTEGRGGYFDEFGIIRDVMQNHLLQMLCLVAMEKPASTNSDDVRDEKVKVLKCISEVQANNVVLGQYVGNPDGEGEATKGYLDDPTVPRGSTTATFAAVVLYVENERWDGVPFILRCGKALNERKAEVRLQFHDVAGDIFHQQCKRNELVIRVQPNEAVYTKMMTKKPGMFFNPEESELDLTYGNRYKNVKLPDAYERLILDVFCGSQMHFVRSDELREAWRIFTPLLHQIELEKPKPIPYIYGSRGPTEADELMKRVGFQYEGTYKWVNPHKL
# Protocol: (§1) G6PD activity was determined by the NADPH production rate from G6PD and 6PGD, then subtracting that of 6PGD, since a product of G6PD, 6-phosphogluconolactone, is rapidly hydrolyzed to a substrate of 6PGD, 6-phosphogluconate, in cells. To obtain the combined dehydrogenase activity, substrates for both dehydrogenase enzymes were added to a cuvette. In another cuvette, substrates for the second enzyme, 6PGD, were added to obtain the activity of this enzyme. Substrate concentrations were as follows: 0.2 mM glucose 6-phosphate, 0.2 mM 6-phosphogluconate, and 0.1 mM NADP^+. 10 μg of cell lysates or 1 μg of recombinant protein were added to a cuvette containing buffer (50 mM Tris, 1 mM MgCl2, pH 8.1) and then the reaction was initiated by NADP^+. The increase of absorbance at 341 nm was measured by a DU800 spectrophotometer (Beckman).
# 6PGD = target: T3, 6PGD (Homo sapiens, UniProt P52209); type: binding
# T3 sequence (P52209 1-483): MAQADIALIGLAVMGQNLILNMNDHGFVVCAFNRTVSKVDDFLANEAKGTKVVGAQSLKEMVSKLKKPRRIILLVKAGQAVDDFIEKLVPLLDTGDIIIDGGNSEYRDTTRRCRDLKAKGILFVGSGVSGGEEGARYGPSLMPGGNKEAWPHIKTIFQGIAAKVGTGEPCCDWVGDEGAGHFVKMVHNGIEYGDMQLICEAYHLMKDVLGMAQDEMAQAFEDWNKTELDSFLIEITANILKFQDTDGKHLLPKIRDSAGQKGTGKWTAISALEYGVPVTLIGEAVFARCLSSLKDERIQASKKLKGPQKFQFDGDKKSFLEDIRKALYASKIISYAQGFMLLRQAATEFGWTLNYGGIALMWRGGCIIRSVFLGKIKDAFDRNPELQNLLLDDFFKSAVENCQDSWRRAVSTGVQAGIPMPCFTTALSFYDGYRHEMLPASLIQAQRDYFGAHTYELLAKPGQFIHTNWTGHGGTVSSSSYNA
# Protocol: In brief, thermal shift assay of compound-protein interaction was performed in 384-well PCR plates with various compound concentrations and 200 μg/ml protein in a buffer solution (20 mM Tris-HCl, 100 mM NaCl, pH 7.4). SYPRO orange was used as a dye to monitor the fluorescence change at 610 nm. Small molecules were dissolved in DMSO and added to protein solution. Final DMSO concentration of solution is 1%. Dissociation constants (Kds) for protein-ligand interaction were calculated using the method as described.
# The fluorescence intensity data were fitted to Eq. (1) to obtain ΔHu, ΔCpu, and Tm by nonlinear regression using the program Prism:
# The thermal unfolding parameters for 6PGD and PGAM1 alone were determined from 4 control wells, each containing 0.2 mg/mL protein.
# [3] = target: T4, 6PGD (H1299 cell lysates or recombinant 6PGD) (Homo sapiens, UniProt P52209); experiment: 6PGD enzyme assay; type: biochemical
# T4 construct: endogenous in cells; host or cells: H1299 cell lysates; part of the results with recombinant 6PGD of unstated origin
# T4 sequence (P52209 1-483): T3 sequence (P52209 1-483)
# Protocol: as §1
# [4] = system: Y26 phosphorylation of PGAM1; experiment: PGAM1 Y26 phosphorylation in human cancer cell lines; type: cell-based; conditions: pertinent human cancer cell lines (KG1a, HEL)
# PGAM1 = PGAM1 (Homo sapiens, UniProt P18669); conditions: cited from earlier work
# Sequence of PGAM1 (P18669 whole entry): as the sequence (P18669 whole entry) above
# [5] = system: human leukemia KG1a cells; experiment: Cell proliferation/viability assay, KG1a; type: cell-based; conditions: increasing concentrations (72h)
# Protocol: For leukemia cell proliferation assay, 10×10^4 cells were seeded in non-tissue culture coated 6-well plate and incubated at 37° C. for indicated times. Cell numbers were counted by trypan blue exclusion under a microscope (×40) at indicated times and the percentage of cell proliferation was determined by comparing PGAM1 knockdown cells to pLKO.1 vector expressing cells. […] Cell viability was determined by counting drug-treated cells compared to DMSO-treated control cells with trypan blue exclusion under a microscope (×40) and by using CellTiter96Aqueous One solution proliferation kit (Promega). For adherent cell proliferation assay such as H1299 and MDA-MB231 cells, 5×10^4 cells were seeded in 6-well plate 24 h before the assay starts and were cultured at 37° C. 24 h after seeding, cells were treated with 5 μM Methyl-2PG and incubated at 37° C. for indicated times. Cell proliferation was determined by the increase in cell number indicated times after the treatment starts compared to that at the treatment starts for each cell line (T=0). Cell numbers were counted by trypan blue exclusion under a microscope (×40). […] Cell viability was determined by counting drug-treated cells compared to DMSO-treated control cells with trypan blue exclusion under a microscope (×40). […] Cell viability was determined by using CellTiter96Aqueous One solution proliferation kit (Promega).
# H1299 cells = experiment: Cell proliferation assay, H1299; type: cell-based, human; conditions: H1299 cells
# Protocol: For leukemia cell proliferation assay, 10×10^4 cells were seeded in non-tissue culture coated 6-well plate and incubated at 37° C. for indicated times. Cell numbers were counted by trypan blue exclusion under a microscope (×40) at indicated times and the percentage of cell proliferation was determined by comparing PGAM1 knockdown cells to pLKO.1 vector expressing cells. […] Cell viability was determined by counting drug-treated cells compared to DMSO-treated control cells with trypan blue exclusion under a microscope (×40) and by using CellTiter96Aqueous One solution proliferation kit (Promega). For adherent cell proliferation assay such as H1299 and MDA-MB231 cells, 5×10^4 cells were seeded in 6-well plate 24 h before the assay starts and were cultured at 37° C. 24 h after seeding, cells were treated with 5 μM Methyl-2PG and incubated at 37° C. for indicated times. Cell proliferation was determined by the increase in cell number indicated times after the treatment starts compared to that at the treatment starts for each cell line (T=0). Cell numbers were counted by trypan blue exclusion under a microscope (×40). For adherent cell viability assay with trypan blue exclusion, 5×10^4 cells were seeded in 6-well plate 24 h before the assay starts and were cultured at 37° C. […] Cell viability was determined by counting drug-treated cells compared to DMSO-treated control cells with trypan blue exclusion under a microscope (×40). For MTT cell viability assay of adherent cells, 5×10^3 cells were seeded in 96-well plate 24 h before the assay starts and were cultured at 37° C. […] Cell viability was determined by using CellTiter96Aqueous One solution proliferation kit (Promega).
# [6] = target: T5, PHGDH (PGAM1 knockdown cell lysates or recombinant PHGDH) (Homo sapiens, UniProt O43175); experiment: PHGDH enzyme assay; type: biochemical
# T5 construct: endogenous in cells; also recombinant rPHGDH of unstated origin
# T5 sequence (O43175 1-533): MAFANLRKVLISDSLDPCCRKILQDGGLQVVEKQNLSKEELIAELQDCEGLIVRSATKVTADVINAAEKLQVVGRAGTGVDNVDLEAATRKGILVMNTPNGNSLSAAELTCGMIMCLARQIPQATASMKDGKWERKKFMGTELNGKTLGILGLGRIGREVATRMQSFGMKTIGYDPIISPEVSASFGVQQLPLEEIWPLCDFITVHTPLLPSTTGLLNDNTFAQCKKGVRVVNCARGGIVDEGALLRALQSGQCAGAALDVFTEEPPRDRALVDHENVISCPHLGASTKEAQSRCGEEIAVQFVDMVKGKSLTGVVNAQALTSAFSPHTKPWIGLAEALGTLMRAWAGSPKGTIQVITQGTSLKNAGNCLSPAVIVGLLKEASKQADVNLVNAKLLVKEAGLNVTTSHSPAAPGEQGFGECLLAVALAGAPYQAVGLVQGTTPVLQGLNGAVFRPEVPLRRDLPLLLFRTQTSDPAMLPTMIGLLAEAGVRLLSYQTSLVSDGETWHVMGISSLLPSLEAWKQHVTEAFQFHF
# Protocol: PHGDH activity was spectrophotometrically measured as described previously. PHGDH enzyme buffer containing 200 mM Tris-HCl (pH8.1), 400 mM KCl, 0.6 mM NAD, 2 mM GSH, 10 mM EDTA was mixed with cell lysates or recombinant PHGDH protein. The reaction was initiated by the addition of 3-PG to a final concentration of 10 mM and followed by measuring the increase in absorbance at 340 nm over a 10 min period.
smiles,measurement,setting,value
O=CC=Cc1ccc(O)cc1 [p-hydroxycinnamaldehyde],"screening outcome (PGAM1 primary screen, enolase secondary screen)",[1],identified as PGAM1 inhibitors
"O=C(O)[C@H](O)COP(=O)(O)O [3-PG, 3-phosphoglycerate]",G6PD activity,[2],did not significantly affect G6PD activity
same,6PGD melting temperature (Tm),"6PGD; increasing concentrations, 100 μM to 25 mM",raises 6PGD melting temperature (Tm) in a dose-dependent manner
same,Kd,6PGD; read-out: Kd for interaction with 6PGD,460 ± 40 µM
same,Ki,"[3]; Dixon plot, read-out: inhibition constant (Ki) for 6PGD",489 ± 13 µM
same,mode of 6PGD inhibition,"[3]; Lineweaver-Burk plot, ~250 μM 3-PG, ~35 μM 6-PG",competitive inhibitor
same,6PGD enzyme activity,"[3]; ~60 μM 3-PG (physiological), H1299 cell lysates or recombinant 6PGD",do not significantly affect 6PGD enzyme activity
same,6PGD enzyme activity,"[3]; ~250 μM 3-PG, H1299 cell lysates or recombinant 6PGD",decreased enzyme activity of 6PGD
N#C/C(=C/c1ccc(O)c(O)c1)C(=O)NCc1ccccc1 [AG490],Y26 phosphorylation of PGAM1,[4],decreased Y26 phosphorylation of PGAM1
Oc1c(Cl)cc(Cl)c(Cl)c1Cc1c(O)c(Cl)cc(Cl)c1Cl [hexachlorophene],"screening outcome (PGAM1 primary screen, enolase secondary screen)",[1],identified as PGAM1 inhibitors
"O=C1c2ccccc2C(=O)c2c1cc(S(=O)(=O)O)c(O)c2O [alizarin Red S, 3,4-dihydroxy-9,10-dioxo-9,10-dihydroanthracene-2-sulfonic acid]",relative PGAM1 inhibitory potency in vitro,[1],more potent PGAM1 inhibitory potential compared to alizarin
same,relative PGAM1 inhibitory potency in vitro,[1]; listed as Alizarin Red S,more potent PGAM1 inhibitor
C#CCCCC(=O)OC(C)(C)C1CCC2(CO2)C(OC(=O)NC(Cc2c[nH]c3ccccc23)C(=O)OCc2ccccc2)C1 (stereo not shown) [MJE3],PGAM1 activity (reported),"PGAM1; Evans et al., 2007, 2005",specifically inhibits PGAM1 activity exclusively in intact cells
same,cancer cell proliferation (reported),PGAM1,attenuates cancer cell proliferation
"O=C1c2ccccc2C(=O)c2c1ccc(O)c2O [alizarin, 1,2-Dihydroxyanthraquinone]",cell proliferation,[5],decreased proliferation
same,cell proliferation,H1299 cells,decreased proliferation
same,"screening outcome (PGAM1 primary screen, enolase secondary screen)",[1],identified as PGAM1 inhibitors
CN1CCN(c2ccc3nc(-c4c(N)c5c(F)cccc5[nH]c4=O)[nH]c3c2)CC1 [TKI258],Y26 phosphorylation of PGAM1,[4],decreased Y26 phosphorylation of PGAM1
"O=C(O)[C@@H](CO)OP(=O)(O)O [2-PG, 2-phosphoglycerate]",enzyme activity of recombinant PHGDH (rPHGDH),[6]; increasing concentrations of 2-PG,increased enzyme activity of recombinant PHGDH
same,PHGDH activity,[6]; ~15 μM 2-PG,did not significantly affect PHGDH activity
same,PHGDH enzyme activity,"[6]; ~45 μM or ~60 μM 2-PG, H1299 PGAM1 knockdown cell lysates",higher PHGDH enzyme activity
same,6PGD enzyme activity,"[3]; 2-PG treatment, H1299 cell lysates or r6PGD",did not affect 6PGD enzyme activity

# Source: patent US10464890B2, “PGAM1 inhibitors and methods related thereto” (Emory University, priority 2011, dated 2019)
